Data taken from patent US20210162028A1, “Methods for Inducing Intermittent Fasting and Modulating Autophagy” (The Hong Kong Polytechnic University, priority 2019, published 2021).
“Also recorded” adds a separate entry of the source.

Key:
Format in all cases: in vivo, mouse
[1] = Daily food intake / 7-day intermittent fasting cycle in mice; conditions: DIO C57BL/6J male mice on HFD
Excerpt: One of the most noticeable effects of intermittent fasting is reduction of bodyweight. […] Specifically, C57BL/6J, which is the most commonly used mouse strain for polygenic obesity model, was used in the study. It is well-reported that C57BL/6J male mice feeding on a high-fat diet will have prominent weight gain, become obese and develop hyperinsulinemia, hyperglycemia, impaired glucose tolerance and insulin resistance [Gallou-Kabani et al., 2007, Obesity 15(8):1996-2005]. Obesity was induced in C57BL/6J male mice via feeding ad libitum a high-fat diet containing 60 kcal % fat (HFD; Research Diets, D12492) for 12-14 weeks starting from 5-week old. These mice are referred as diet-induced obese (DIO) mice. DIO mice were stratified according to bodyweight into 2 groups. […] Both groups of mice continued to feed ad libitum on the HFD throughout the treatment period. One group of age-matched C57BL/6J male mice feeding ad libitum on an ordinary rodent chow diet (CD; LabDiet, 50IF/6F) and injected with vehicle served as the lean control [CD (vehicle) group]. Food intake and bodyweight of mice were measured daily. […] DIO mice were injected with rhArg on Day 0, which was Day 7 of the previous cycle. Similarly, Day 7 of the cycle shown in FIG. 1B was Day 0 of the next cycle. […] Bodyweight gain is one of the biomarkers related to aging.
C57BL/6J male mice were fed a high-fat diet from 5-week old for 12 weeks. They were then stratified into 3 groups according to their bodyweight and individually caged: (i) one group of mice received i.p. injection of 600 U N-ABD094-rhArg (SEQ ID NO: 50) once a week [HFD (rhArg) group] and was fed ad libitum the HFD for 5 weeks; (ii) one group of mice received i.p. injection of saline once a week, and was fed a predetermined amount of HFD on each day to artificially create a 7-day intermittent fasting cycle that mimics the pattern of food intake of mice administered once a week with rhArg [HFD (artificial IF) group)]; (iii) one group of mice was injected with saline once a week and was fed ad libitum the HFD [HFD (vehicle) group].

[2] = Bodyweight of treated mice; conditions: DIO C57BL/6J male mice on HFD
[3] = Insulin tolerance test (ITT); conditions: DIO C57BL/6J male mice on HFD, after 6 weeks
Excerpt: In terms of reversing insulin resistance on pre-existing obese mice, insulin tolerance test (ITT) was employed (FIG. 59).
In terms of reversing insulin resistance on pre-existing obese mice, insulin tolerance test (ITT) was employed (FIG. 68A).

[4] = Glucose tolerance test (GTT); conditions: DIO C57BL/6J male mice on HFD, after 7 weeks
hepatocyte = experiment: Transmission electron microscopy of liver (hepatocytes); conditions: DIO C57BL/6J male mice on HFD, 3 weeks, Day 3
Excerpt: FIG. 47 illustrates the liver examined by transmission electron microscopy at Day 1, Day 3, Day 5 and Day 7 of the 7-day intermittent after N-ABD094-rhArg injection.
The presence of autophagosome in liver after treatment for 3 weeks were examined by TEM (FIGS. 62, 63 and 64).
The presence of autophagosome in liver after treatment for 3 weeks were examined by transmission electron microscopy (FIGS. 71 and 72).

[5] = Hepatic steatosis (oil Red O / H&E staining, liver triglyceride); conditions: DIO C57BL/6J male mice on HFD, 11 weeks after treatment
[6] = Fat pad and organ mass at end of treatment; conditions: DIO C57BL/6J male mice on HFD
[7] = 300 U/week rhArg and/or 300 mg/kg metformin
[8] = 300 U rhArg once a week and/or 300 mg/kg metformin daily
[9] = rhArg once a week alone or 0.33 mg RA daily alone
[10] = rhArg weekly and/or 0.33 mg/day RA
[11] = rhArg weekly and/or 0.33 mg RA daily

CN(C)C(=N)N=C(N)N [metformin, reference compound]
Pattern of food intake (intermittent fasting cycle) ([1]; 300 U rhArg i.p. once a week and/or 300 mg/kg metformin daily): stable | Total food intake per week, less than HFD (vehicle) group ([1]; 300 U rhArg i.p. once a week and/or 300 mg/kg metformin daily by gastric feeding, 9 weeks): 13% | Change in bodyweight under single treatment ([2]; 300 U rhArg once a week alone or 300 mg/kg metformin daily alone): stable body weight without further increase in body mass | Change in bodyweight under single treatment ([2]; 300 U rhArg once a week alone or 300 mg/kg metformin daily alone, listed as Met): could only prevent further gain in bodyweight, but did not result in weight loss | Insulin sensitivity in ITT [3, 7]: cannot relieve insulin resistant | Glucose tolerance in GTT [4, 7]: cannot relieve glucose intolerance | TEM of liver: autophagosomes (hepatocyte; [7]): no autophagosome is observed; also recorded: autophagosome was rarely seen | TEM of liver: lipid droplets (hepatocyte; [7]): significant decrease in lipid droplet size | Lipid in liver (H&E staining) ([5]; rhArg and/or metformin): slight effect of diminishing lipid in liver | Mass of organs including liver, kidney and BAT [6, 8]: cannot reduce the mass of most organs | Visceral and subcutaneous fat mass [6, 8]: did not reduce body fat

CC1=C(/C=C/C(C)=C/C=C/C(C)=C/C(=O)O)C(C)(C)CCC1 [RA, all-trans retinoic acid, reference compound]
Pattern of food intake (intermittent fasting cycle) ([1]; 200 U rhArg i.p. once a week and/or 0.33 mg RA daily): stable | Total food intake per week, less than HFD (vehicle) group ([1]; 200 U rhArg i.p. once a week and/or 0.33 mg RA daily by gastric feeding, 10 weeks): slight, but insignificant decrease | Change in bodyweight under single treatment [2, 9]: could only prevent further gain in bodyweight, but did not result in weight loss; also recorded: stable body weight without further increase | Insulin sensitivity in ITT [3, 10]: marginal effect on improving insulin sensitivity but not reach statistical significant | Glucose tolerance in GTT [4, 10]: cannot relieve glucose intolerance | TEM of liver: autophagosomes (hepatocyte; [11]): autophagosome was rarely seen; also recorded: no autophagosome is observed | TEM of liver: lipid droplets (hepatocyte; [11]): significant decrease in lipid droplet size | Lipid in liver (H&E staining) ([5]; rhArg and/or RA): significant effect on diminishing lipid in liver | Mass of organs including liver, pancreas and BAT [6, 9]: can already reduce the mass of most organs | Visceral and subcutaneous fat mass ([6]; rhArg once a week and/or 0.33 mg RA daily): did not reduce body fat
